From patent publication US20260306506A1, “PYRIDO[4,3-D]PYRIMIDINE COMPOUNDS” (Pfizer Inc., priority 2023, published 2026) come the findings set out here.

A value given as a limit tells only on which side of the number the result lay.

Assay [1] deals with PANC08.13 (pancreatic cancer cell line). Briefly: KRAS Cell Titer Glo (CTG) viability assay, Panc08.13. Particulars: Panc08.13, 7-day, geometric mean when n>1. In kind it is cell-based. From the text:
(§1) The CellTiter-Glo® (CTG) Luminescent Cell Viability Assay is a homogeneous method of determining the number of viable cells in culture based on quantitation of the ATP present, an indicator of metabolically active cells. The CTG is designed for use with multi-well formats, making it ideal for automated high-throughput screening (HTS), cell proliferation and cytotoxicity assays. The homogeneous assay procedure involves adding the single reagent (CellTiter-Glo® Reagent) directly to cells cultured in serum-supplemented medium. Cell washing, removal of medium and multiple pipetting steps are not required. The system detects as few as 15 cells per well in a 384-well format in 10 minutes after adding reagent and mixing.
(§2) Cells are grown in humidified 5% CO2 incubator at 37° C. using the culture conditions outlined below. All cell culture media reagents were purchased from Gibco. Cell lines purchased from ATCC: H358 (non-small cell lung cancer cell line), SW620 (colorectal cancer cell line), PANC08.13 (RPM11640+10% FBS+10 units/ml Insulin, pancreatic cancer cell line). Test and control compounds are dispensed as nanoliter drops according to desired final concentrations in 0.1% DMSO using Echo Acoustic Dispenser onto 384 assay plates (Corning, Cat #3764) prior to cell seeding. Cells were seeded in 40 μL volume per well at the following cell densities (cells per well): H358 (300), SW620 (750), PANC 08.13 (600). Cells are incubated in the presence of compound for 7-days. Viability is determined on Day 7 using CellTiter-Glo® (CTG) Luminescent Cell Viability Assay (Promega). CTG is added to a final volume of 20 μl per well and incubated at room temperature for 15 minutes before luminescence is captured using an EnVision Reader with LUM384 US protocol. Data is analyzed using Activity Base to determine compound response and will be represented either as a percent effect (PCTEFF) or percent control (PCTOCTL) as described: Zero percent effect control (ZPE) (Negative control)—100% DMSO. Hundred percent effect (HPE) (Positive control)—1 μM Trametinib (GSK1120212, MEK inhibitor) (4 nl of 10 mM and 36 nl of DMSO per well). The following equations/nomenclature are used (% Effect; PCTEFF) and (% of Control; PCTOCTL): PCTEFF: 100*(Raw_Data_Value−HPE/ZPE−HPE), PCTOCTL: 100*Raw_Data_Value/User_Defined_Array), where the User_Defined_Array is either summarized HPE or ZPE.
In general terms: ATP-based viability assays read luminescence as a measure of living cells.

The subject of assay [2] is SW620 (colorectal cancer cell line). Briefly: KRAS Cell Titer Glo (CTG) viability assay, SW620. In kind it is cell-based. Particulars: SW620, 7-day, geometric mean when n>1.
From the text: as §1, §2

Assay [3] has as its system H358 (non-small cell lung cancer cell line). Briefly: KRAS Cell Titer Glo (CTG) viability assay, H358. It is filed as cell-based. The settings on record: H358, 7-day, geometric mean when n>1.
From the text: as §1, §2

Assay [4] deals with T1, G12C GTPγS KRAS (aa2-184) (Homo sapiens, UniProt P01116, G12C).
T1 construct: G12CGDP KRAS (aa2-184); made in house
The experiment in a line: SPR binding (Biacore), GTPγS-loaded KRAS G12C. Particulars: for Kd: 10° C., geometric mean when n>1, read-out: KRasGTPgS G12C SPR KD; for KRasGTPgS G12C SPR t1/2: dissociative half-life, t1/2=0.693/koff. An excerpt: (§3) No additional regeneration was used.
(§4) Compound dissociation was monitored for at least 3600 seconds. […] No additional regeneration was used.
(In general: Surface plasmon resonance follows binding to a sensor surface in real time, without labels.)

Assay [5] has as its target T2, WT GTPγS KRAS (aa1-185) (Homo sapiens, UniProt P01116).
T2 construct: wild-type (WT) KRASGDP (aa1-185); made in house
Briefly: SPR binding (Biacore), GTPγS-loaded WT KRAS. Particulars: for Kd: 10° C., geometric mean when n>1, read-out: KRasGTPgS SPR KD; for KRasGTPgS SPR t1/2: dissociative half-life, t1/2=0.693/koff.
From the text: as §3, §4

Assay [6] deals with T3, G12D GTPγS KRAS (aa1-185) (Homo sapiens, UniProt P01116, G12D).
T3 construct: G12DGDP KRAS (aa1-185); made in house
The experiment in a line: SPR binding (Biacore), GTPγS-loaded KRAS G12D. The settings on record: for Kd: 10° C., geometric mean when n>1, read-out: KRasGTPgS G12D SPR KD; for KRasGTPgS G12D SPR t1/2: dissociative half-life, t1/2=0.693/koff.
From the text: as §3, §4

Assay [7] concerns the target T4, G12V GTPγS KRAS (aa2-184) (Homo sapiens, UniProt P01116, G12V).
T4 construct: G12VGDP KRAS (aa2-184); made in house
Briefly: SPR binding (Biacore), GTPγS-loaded KRAS G12V. Particulars: for Kd: 10° C., geometric mean when n>1, read-out: KRasGTPgS G12V SPR KD; for KRasGTPgS G12V SPR t1/2: dissociative half-life, t1/2=0.693/koff.
From the text: as §3, §4

Assay [8] addresses G12V GDP KRAS (aa2-184) (Homo sapiens, UniProt P01116, G12V). The experiment in a line: biochemical.
Experimental: (§5) The binding affinity and kinetics were measured by Surface Plasmon Resonance (SPR) using Biacore 8K or 8K+ (Cytiva, Marlborough, MA) instruments. Recombinant, C-terminal site-specific biotinylated, wild-type (WT) KRASGDP (aa1-185), G12DGDP KRAS (aa1-185), G12CGDP KRAS (aa2-184), G12VGDP KRAS (aa2-184), WT HRASGDP (aa2-184) and WT NRASGDP (aa2-185) proteins were purified in presence of 1 μM GDP. The GDP-loaded KRAS proteins then went through nucleotide exchange with GTPγS (a non-hydrolysable analog of GTP) in the presence of alkaline phosphatase beads to obtain WTGTPγS KRAS (aa1-185), G12DGTPγS KRAS (aa1-185), G12CGTPγS KRAS (aa2-184), G12VGTPγS KRAS (aa2-184), WT HRASGTPγS (aa2-184) and WT NRASGTPγS (aa2-185). Binding measurements were performed parallelly in sets of either WT/G12D/G12C/G12V KRAS or WT K/H/N RAS proteins in GDP- and/or GTPγS-loaded forms, respectively.
(§6) Biacore instrument was desorbed and docked with a Series S Sensor Chip SA. […] Compound binding kinetics were measured in either multi-cycle or single-cycle kinetic format.
(§7) A 2-fold, 10-point serial dilution of test compounds was set-up in a 96-well microplate (Greiner; Cat #650101) with a top concentration of either 10 μM or 100 μM. Binding kinetics was measured at 10° C. by injecting serial dilution of compounds onto both reference and RAS immobilized channels at a flow rate of 100 μL/min and association time of 90 seconds. Compound dissociation was monitored for at least 400 seconds during each cycle. […]
(§8) A 3-fold, 6-point serial dilution of compounds was set-up in a deep 96-well microplate (Greiner Bio; Cat #780201) with the highest concentration of 1 μM (concentration range: 0.004-1 μM). Binding kinetics was measured at 10° C. by injecting serial dilutions of compounds in increasing order onto reference as well as RAS immobilized channels at a flow rate of 100 μL/min and association time of 120 seconds. Compound dissociation was monitored for at least 3600 seconds. […]
(§9) Both MCK and SCK data were processed and analyzed using Biacore Insight evaluation software (Cytiva, Marlborough, MA)). […]
The target in assay [9] is T5, wild-type (WT) KRAS GDP (aa1-185) (Homo sapiens, UniProt P01116).
T5 construct: wild-type (WT) KRASGDP (aa1-185); made in house
Briefly: SPR binding (Biacore), GDP-loaded WT KRAS. The settings on record: 10° C., geometric mean when n>1.
From the text: as §3, §4

The target of assay [10] is G12D GDP KRAS (aa1-185) (Homo sapiens, UniProt P01116, G12D). Briefly: biochemical.
Experimental: as §5, §6, §7, §8, §9
For assay [11], the target named is G12C GDP KRAS (aa2-184) (Homo sapiens, UniProt P01116, G12C). Briefly: biochemical.
Experimental: as §5, §6, §7, §8, §9
Where [12] appears, read: Homo sapiens, PANC-08-13, 168 h.

A word on the IC50: it is the concentration that inhibits the measured activity by half. The low end stands for higher potency, the high end for lower potency. In the case of `C#Cc1cccc2cc(O)cc(-c3ncc4c(N5C[C@@H]6C[C@H](C5)[C@H](O)C6)nc(OC[C@@]56CCCN5C[C@H](F)C6)nc4c3F)c12` [Example 9, (1R,5R,6R)-3-[7-(8-ethynyl-3-hydroxynaphthalen-1-yl)-8-fluoro-2-{[(2R,7aS)-2-fluorotetrahydro-1H-pyrrolizin-7a(5H)-yl]methoxy}pyrido[4,3-d]pyrimidin-4-yl]-3-azabicyclo[3.2.1]octan-6-ol], the 50% inhibitory concentration (IC50) came out at 12.3 nM in [1] (setting [12]); 166 nM in assay [2] (Homo sapiens, SW-620, 168 h); 112 nM in assay [3] (Homo sapiens, NCI-H358, 168 h).
On the same counts, the results for `C#Cc1c(F)ccc2cc(O)cc(-c3ncc4c(N5C[C@@H]6C[C@H](C5)[C@H](O)C6)nc(OC[C@@]56CCCN5C[C@H](F)C6)nc4c3F)c12` [Example 10, (1R,5R,6R)-3-[7-(8-ethynyl-7-fluoro-3-hydroxynaphthalen-1-yl)-8-fluoro-2-{[(2R,7aS)-2-fluorotetrahydro-1H-pyrrolizin-7a(5H)-yl]methoxy}pyrido[4,3-d]pyrimidin-4-yl]-3-azabicyclo[3.2.1]octan-6-ol] are 8.15 nM, 35.7 nM and 26.9 nM.
In the same order, the values of `N#CC[C@@H]1CCCN(c2nc(OC[C@@]34CCCN3C[C@H](F)C4)nc3c(F)c(-c4cc(O)cc5ccc(F)c(F)c45)ncc23)C1` [Example 12, {(3S)-1-[7-(7,8-difluoro-3-hydroxynaphthalen-1-yl)-8-fluoro-2-{[(2R,7aS)-2-fluorotetrahydro-1H-pyrrolizin-7a(5H)-yl]methoxy}pyrido[4,3-d]pyrimidin-4-yl]piperidin-3-yl}acetonitrile] are 19.8 nM, 136 nM and 115 nM.
Regarding `Oc1cc(-c2ncc3c(N4C[C@@H]5C[C@H](C4)[C@H](O)C5)nc(OC[C@@]45CCCN4C[C@H](F)C5)nc3c2F)c2c(F)c(F)ccc2c1` [Example 14, (1R,5R,6R)-3-[7-(7,8-difluoro-3-hydroxynaphthalen-1-yl)-8-fluoro-2-{[(2R,7aS)-2-fluorotetrahydro-1H-pyrrolizin-7a(5H)-yl]methoxy}pyrido[4,3-d]pyrimidin-4-yl]-3-azabicyclo[3.2.1]octan-6-ol], the 50% inhibitory concentration (IC50) in assay [1] (setting [12]) was 10.8 nM; in assay [2] (Homo sapiens, SW-620, 168 h), 35.3 nM; in [3] (Homo sapiens, NCI-H358, 168 h), 41.6 nM.
With `C#Cc1c(F)ccc2cc(O)cc(-c3ncc4c(N5CCC[C@@H](CC#N)C5)nc(OC[C@@]56CCCN5C[C@H](F)C6)nc4c3F)c12` [Example 15, {(3S)-1-[7-(8-ethynyl-7-fluoro-3-hydroxynaphthalen-1-yl)-8-fluoro-2-{[(2R,7aS)-2-fluorotetrahydro-1H-pyrrolizin-7a(5H)-yl]methoxy}pyrido[4,3-d]pyrimidin-4-yl]piperidin-3-yl}acetonitrile], the concentration for half-maximal inhibition (IC50) in assay [1] (setting [12]) was found to be 121 nM; in [2] (Homo sapiens, SW-620, 168 h), 871 nM; in [3] (Homo sapiens, NCI-H358, 168 h), 493 nM.
As to `Oc1cc(-c2ncc3c(N4C[C@@H]5C[C@H](C4)[C@H](O)C5)nc(OC[C@@]45CCCN4C[C@H](F)C5)nc3c2F)c2c(Cl)cccc2c1` [Example 20, (1R,5R,6R)-3-[7-(8-chloro-3-hydroxynaphthalen-1-yl)-8-fluoro-2-{[(2R,7aS)-2-fluorotetrahydro-1H-pyrrolizin-7a(5H)-yl]methoxy}pyrido[4,3-d]pyrimidin-4-yl]-3-azabicyclo[3.2.1]octan-6-ol], the concentration for half-maximal inhibition (IC50) came out at 45.2 nM in assay [1] (setting [12]); 164 nM in assay [2] (Homo sapiens, SW-620, 168 h); 142 nM in assay [3] (Homo sapiens, NCI-H358, 168 h).
On the same counts, the results for `C#Cc1c(F)ccc2cc(O)cc(-c3nc4c5c(nc(OC[C@@]67CCCN6C[C@H](F)C7)nc5c3F)N3CCCC[C@H]3CO4)c12` [Example 23, 5-ethynyl-6-fluoro-4-[(8aS)-4-fluoro-2-{[(2R,7aS)-2-fluorotetrahydro-1H-pyrrolizin-7a(5H)-yl]methoxy}-8,8a,9,10,11,12-hexahydro-7-oxa-1,3,6,12a-tetraazabenzo[4,5]cyclohepta[1,2,3-de]naphthalen-5-yl]naphthalen-2-ol] are 1.2 nM, 46 nM and 74 nM.
Regarding `C#Cc1c(F)c(F)cc2cc(O)cc(-c3nc4c5c(nc(OC[C@@]67CCCN6C[C@H](F)C7)nc5c3F)N3CCCC[C@H]3CO4)c12` [Example 32, 5-ethynyl-6,7-difluoro-4-[(8aS)-4-fluoro-2-{[(2R,7aS)-2-fluorotetrahydro-1H-pyrrolizin-7a(5H)-yl]methoxy}-8,8a,9,10,11,12-hexahydro-7-oxa-1,3,6,12a-tetraazabenzo[4,5]cyclohepta[1,2,3-de]naphthalen-5-yl]naphthalen-2-ol], the IC50 in assay [1] (setting [12]) turned out to be 2.1 nM; in [2], 45 nM; in assay [3] it was 48 nM.
By Kd is commonly meant the free concentration of one partner at which half of the binding sites on the other are occupied at equilibrium, for simple one-to-one binding. As to `C#Cc1c(F)c(F)cc2cc(O)cc(-c3nc4c5c(nc(OC[C@@]67CCCN6C[C@H](F)C7)nc5c3F)N3CCCC[C@H]3CO4)c12` [Example 33, 5-ethynyl-6,7-difluoro-4-[(8aS)-4-fluoro-2-{[(2R,7aS)-2-fluorotetrahydro-1H-pyrrolizin-7a(5H)-yl]methoxy}-8,8a,9,10,11,12-hexahydro-7-oxa-1,3,6,12a-tetraazabenzo[4,5]cyclohepta[1,2,3-de]naphthalen-5-yl]naphthalen-2-ol], the dissociation constant Kd in [4] is 0.205 nM; in [5] it was 0.168 nM; in assay [6], 0.119 nM; in assay [7], 0.172 nM. Also, the “KRasGTPgS G12C SPR t1/2” value in assay [4] came to 17.6 h. Moreover, the “KRasGTPgS SPR t1/2” value in assay [5] worked out at 12.7 h. Besides, the results for the half-inhibitory concentration (IC50) in [1], in [2] and in assay [3] were 1.1 nM, 6.6 nM and 3.9 nM, respectively. Further, in assay [6], the “KRasGTPgS G12D SPR t1/2” value came out at 9.9 h. The “KRasGTPgS G12V SPR t1/2” value in assay [7] turned out to be 12.7 h.
With `C=C1CN2CCC[C@@]2(COc2nc3c4c(nc(-c5cc(O)cc6ccc(F)c(CC)c56)c(F)c4n2)OC[C@@H]2COCCCN32)C1` [Example 35, 5-ethyl-6-fluoro-4-[(8aS)-4-fluoro-2-{[(7aS)-2-methylidenetetrahydro-1H-pyrrolizin-7a(5H)-yl]methoxy}-8a, 9,12,13-tetrahydro-8H,11H-7,10-dioxa-1,3,6,13a-tetraazanaphtho[1,8-ab]heptalen-5-yl]naphthalen-2-ol], the dissociation constant (Kd) turned out to be 0.181 nM in [4]; 0.048 nM in [8]; 0.184 nM in [5]; 0.092 nM in assay [6]; 0.007 nM in assay [9]; 0.011 nM in assay [10]. The dissociation constant Kd in assay [7] is 0.209 nM; in assay [11], 0.009 nM. In assay [4], the “KRasGTPgS G12C SPR t1/2” value was determined as 17.8 h. In assay [5], the “KRasGTPgS SPR t1/2” value amounted to 12.4 h. Moreover, the half-inhibitory concentration (IC50) in [1] (setting [12]) was below 0.7 nM; in assay [2] (Homo sapiens, SW-620, 168 h) it was 3.8 nM; in assay [3] (Homo sapiens, NCI-H358, 168 h), 2.3 nM. For the same compound, the “KRasGTPgS G12D SPR t1/2” value in assay [6] amounted to 11.3 h. For the same compound, the “KRasGTPgS G12V SPR t1/2” value in [7] turned out to be 10.3 h.
